{
  "source": "patent US20140057877A1",
  "about": "“Therapeutic polyamine compositions and their synthesis” (priority 2002, published 2014)",
  "key": {"[1]": {"experiment": "Oil water partition coefficients (octanol/water, HPLC)", "format": "physicochemical", "conditions": "1:1 octanol/water, shaken 12 hours, HPLC", "protocol": "Partition coefficients were determined by dissolving the compound in a 1:1 mixture of octanol/water and shaking the solution for 12 hours. HPLC was used to determine the partition coefficient. The reported values are the log of the octanol/water partition"}, "[2]": {"test_system": "E. coli (GM 7359) alkA tag E. coli mutant", "conditions": "60 minutes", "description": "(§1) Bacteria were inoculated and cultured in nutrient agar for eighteen hours, using a shaking incubator at 140 r.p.m and 35° C. Medium contained 10 mM HEPES buffer at pH 7. Cells were centrifuged twice in Sorval RC-5 centrifuge 12,000 r.pm.×15 minutes at 4° C. and washed twice in 10 uM HEPES buffer. The resuspended cells were counted using a Hemocrit and diluted to a level of 5×10^1 cells per ml in 10 μM HEPES. The cells, the following toxins; methyl viologen (paraquat), methyl viologen (MPP^+), rotenone, daizoxide, streptozotocin and alloxan, and antidotes were added, reaching final volumes of 1 ml in Eppendorf tubes and placed on a rotator at room temperature. 10 μM diethylenetriaminepentaacetic acid was added to the samples to terminate the reactions at the specified times of either twenty or sixty minutes. 300 μL of cells were plated on Petri plates containing nutrient agar and incubated at 35° C. overnight. Colonies were counted after 20 hours. Percentage survival as compared with culture controls is calculated from the means of triplicates in each experimental group."}, "M. Luteus (ATCC 499732)": {"test_system": "M. Luteus (ATCC 499732)", "experiment": "Bacterial survival, toxin diazoxide and antidotes", "description": "as §1"}, "[3]": {"test_system": "E. coli (GM 7359) alkA tag E. coli mutant", "conditions": "60 minutes", "remark": "listed apart in the source", "description": "as §1"}, "[4]": {"test_system": "E. coli (GM 7359) alkA tag E. coli mutant", "experiment": "Bacterial survival, toxin streptozotocin and antidotes", "conditions": "60 minutes", "description": "as §1"}, "S. aureus (ATCC 29213)": {"test_system": "S. aureus (ATCC 29213)", "experiment": "Bacterial survival, toxin MPP^+ and antidotes", "conditions": "60 minutes", "description": "as §1"}},
  "note": "Read-outs that look alike come from different tables or passages of the source.",
  "data": [
    {"compound": "CNCCNCCCNCCNC", "note": "[2,3,2-methylated on N1/N4, N,N′″-dimethyl 2,3,2-tetramine]", "values": [
      {"measurement": "Log Partition Coefficient Octanol:Water", "setting": "[1]", "value": 0.4}
    ]},
    {"compound": "1,4,8,11-tetraaza-1,4,8,11-tetra(2-piperidylethyl)cyclotetradecane [cyclam-piperidine]", "values": [
      {"measurement": "Log Partition Coefficient Octanol:Water", "setting": "[1]", "value": 0.7}
    ]},
    {"compound": "1,4,8,11-tetraaza-1,4,8,11-tetrabicyclo[3.3.1]non-3-ylcyclotetradecane [Cyclam Adamantane]", "values": [
      {"measurement": "Mean % Survival", "setting": "[2]; 2 mM Alloxan + 2.5 uM antidote", "value": 100, "unit": "%"},
      {"measurement": "Mean % Survival", "setting": "[2]; 2 mM Alloxan + 10 uM antidote", "value": 100, "unit": "%"},
      {"measurement": "Mean % Survival", "setting": "[2]; substance alone 10 uM", "value": 100, "unit": "%"},
      {"measurement": "Mean % Survival", "setting": "M. Luteus (ATCC 499732); 0.2 mM Diazoxide + 12.5 uM antidote, T20", "value": 100, "unit": "%"},
      {"measurement": "Mean % Survival", "setting": "M. Luteus (ATCC 499732); 0.2 mM Diazoxide + 12.5 uM antidote, T60", "value": 100, "unit": "%"},
      {"measurement": "Mean % Survival", "setting": "M. Luteus (ATCC 499732); 0.2 mM Diazoxide + 50 uM antidote, T20", "value": 100, "unit": "%"},
      {"measurement": "Mean % Survival", "setting": "M. Luteus (ATCC 499732); 0.2 mM Diazoxide + 100 uM antidote, T20", "value": 100, "unit": "%"},
      {"measurement": "Mean % Survival", "setting": "M. Luteus (ATCC 499732); 0.2 mM Diazoxide + 100 uM antidote, T60", "value": 100, "unit": "%"},
      {"measurement": "Mean % Survival", "setting": "M. Luteus (ATCC 499732); substance alone 100 uM, T20 (20 minutes)", "value": 100, "unit": "%"},
      {"measurement": "Mean % Survival", "setting": "M. Luteus (ATCC 499732); substance alone 100 uM, T60 (60 minutes)", "value": 100, "unit": "%"},
      {"measurement": "Mean % Survival", "setting": "[3]; 100 uM Rotenone + 2.5 uM antidote", "value": 97, "unit": "%"},
      {"measurement": "Mean % Survival", "setting": "[3]; 100 uM Rotenone + 5 uM antidote", "value": 89, "unit": "%"},
      {"measurement": "Mean % Survival", "setting": "[3]; 100 uM Rotenone + 12.5 uM antidote", "value": 100, "unit": "%"},
      {"measurement": "Mean % Survival", "setting": "[3]; substance alone 25 uM", "value": 100, "unit": "%"},
      {"measurement": "Mean % Survival", "setting": "[4]; 100 uM Streptozotocin + 1 uM antidote", "value": 93, "unit": "%"},
      {"measurement": "Mean % Survival", "setting": "[4]; 100 uM Streptozotocin + 5 uM antidote", "value": 100, "unit": "%"},
      {"measurement": "Mean % Survival", "setting": "[4]; 100 uM Streptozotocin + 12.5 uM antidote", "value": 100, "unit": "%"},
      {"measurement": "Mean % Survival", "setting": "[4]; substance alone 12.5 uM", "value": 100, "unit": "%"},
      {"measurement": "Mean % Survival", "setting": "S. aureus (ATCC 29213); 0.2 mM MPP^+ + 1 uM antidote", "value": 100, "unit": "%"},
      {"measurement": "Mean % Survival", "setting": "S. aureus (ATCC 29213); 0.2 mM MPP^+ + 2.5 uM antidote", "value": 100, "unit": "%"},
      {"measurement": "Mean % Survival", "setting": "S. aureus (ATCC 29213); 0.2 mM MPP^+ + 5.0 uM antidote", "value": 100, "unit": "%"},
      {"measurement": "Mean % Survival", "setting": "S. aureus (ATCC 29213); 0.2 mM MPP^+ + 7.5 uM antidote", "value": 100, "unit": "%"},
      {"measurement": "Mean % Survival", "setting": "S. aureus (ATCC 29213); substance alone 30 uM", "value": 100, "unit": "%"}
    ]}
  ]
}
